Assay results from ChEMBL document CHEMBL1142418, “CoMFA and HQSAR studies on 6,7-dimethoxy-4-pyrrolidylquinazoline derivatives as phosphodiesterase10A inhibitors” (Bioorg Med Chem, 2008).

Columns and labels:
[1] = molecular target: cAMP and cAMP-inhibited cGMP 3',5'-cyclic phosphodiesterase 10A (Homo sapiens, UniProt Q9Y233); assay: Inhibition of PDE10A
[2] = molecular target: cGMP-inhibited 3',5'-cyclic phosphodiesterase 3A (Homo sapiens, UniProt Q14432); assay: Inhibition of PDE3A
[3] = molecular target: cGMP-inhibited 3',5'-cyclic phosphodiesterase 3B (Homo sapiens, UniProt Q13370); assay: Inhibition of PDE3B
Sequence of cGMP-inhibited 3',5'-cyclic phosphodiesterase 3B (Q13370 whole entry): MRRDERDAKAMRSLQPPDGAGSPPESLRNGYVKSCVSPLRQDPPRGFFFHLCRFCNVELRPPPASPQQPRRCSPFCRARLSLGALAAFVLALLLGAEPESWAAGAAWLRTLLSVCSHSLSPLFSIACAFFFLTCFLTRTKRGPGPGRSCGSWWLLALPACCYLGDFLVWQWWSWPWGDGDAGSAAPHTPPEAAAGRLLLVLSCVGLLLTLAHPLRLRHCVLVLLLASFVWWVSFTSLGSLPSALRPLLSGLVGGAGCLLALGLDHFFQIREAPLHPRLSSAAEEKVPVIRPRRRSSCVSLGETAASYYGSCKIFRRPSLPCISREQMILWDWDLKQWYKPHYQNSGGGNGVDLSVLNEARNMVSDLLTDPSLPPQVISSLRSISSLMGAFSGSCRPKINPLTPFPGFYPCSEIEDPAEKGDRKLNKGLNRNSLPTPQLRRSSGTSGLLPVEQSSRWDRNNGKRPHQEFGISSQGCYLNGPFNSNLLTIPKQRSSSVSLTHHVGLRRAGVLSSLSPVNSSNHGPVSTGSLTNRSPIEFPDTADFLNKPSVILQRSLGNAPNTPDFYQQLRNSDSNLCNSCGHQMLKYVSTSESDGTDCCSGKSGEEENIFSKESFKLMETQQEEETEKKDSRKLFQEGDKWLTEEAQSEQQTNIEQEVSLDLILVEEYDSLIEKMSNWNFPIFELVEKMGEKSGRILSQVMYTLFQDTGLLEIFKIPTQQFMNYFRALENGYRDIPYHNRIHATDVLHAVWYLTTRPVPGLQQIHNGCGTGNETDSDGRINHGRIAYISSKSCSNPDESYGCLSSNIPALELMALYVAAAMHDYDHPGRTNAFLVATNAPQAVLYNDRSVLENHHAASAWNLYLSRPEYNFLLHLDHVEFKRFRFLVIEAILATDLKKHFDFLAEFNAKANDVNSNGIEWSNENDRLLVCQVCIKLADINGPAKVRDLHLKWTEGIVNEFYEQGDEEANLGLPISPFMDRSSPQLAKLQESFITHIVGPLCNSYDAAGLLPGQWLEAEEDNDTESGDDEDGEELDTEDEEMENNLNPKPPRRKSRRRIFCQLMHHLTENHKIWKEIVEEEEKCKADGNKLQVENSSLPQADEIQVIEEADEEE

Sequence of cAMP and cAMP-inhibited cGMP 3',5'-cyclic phosphodiesterase 10A (Q9Y233 whole entry): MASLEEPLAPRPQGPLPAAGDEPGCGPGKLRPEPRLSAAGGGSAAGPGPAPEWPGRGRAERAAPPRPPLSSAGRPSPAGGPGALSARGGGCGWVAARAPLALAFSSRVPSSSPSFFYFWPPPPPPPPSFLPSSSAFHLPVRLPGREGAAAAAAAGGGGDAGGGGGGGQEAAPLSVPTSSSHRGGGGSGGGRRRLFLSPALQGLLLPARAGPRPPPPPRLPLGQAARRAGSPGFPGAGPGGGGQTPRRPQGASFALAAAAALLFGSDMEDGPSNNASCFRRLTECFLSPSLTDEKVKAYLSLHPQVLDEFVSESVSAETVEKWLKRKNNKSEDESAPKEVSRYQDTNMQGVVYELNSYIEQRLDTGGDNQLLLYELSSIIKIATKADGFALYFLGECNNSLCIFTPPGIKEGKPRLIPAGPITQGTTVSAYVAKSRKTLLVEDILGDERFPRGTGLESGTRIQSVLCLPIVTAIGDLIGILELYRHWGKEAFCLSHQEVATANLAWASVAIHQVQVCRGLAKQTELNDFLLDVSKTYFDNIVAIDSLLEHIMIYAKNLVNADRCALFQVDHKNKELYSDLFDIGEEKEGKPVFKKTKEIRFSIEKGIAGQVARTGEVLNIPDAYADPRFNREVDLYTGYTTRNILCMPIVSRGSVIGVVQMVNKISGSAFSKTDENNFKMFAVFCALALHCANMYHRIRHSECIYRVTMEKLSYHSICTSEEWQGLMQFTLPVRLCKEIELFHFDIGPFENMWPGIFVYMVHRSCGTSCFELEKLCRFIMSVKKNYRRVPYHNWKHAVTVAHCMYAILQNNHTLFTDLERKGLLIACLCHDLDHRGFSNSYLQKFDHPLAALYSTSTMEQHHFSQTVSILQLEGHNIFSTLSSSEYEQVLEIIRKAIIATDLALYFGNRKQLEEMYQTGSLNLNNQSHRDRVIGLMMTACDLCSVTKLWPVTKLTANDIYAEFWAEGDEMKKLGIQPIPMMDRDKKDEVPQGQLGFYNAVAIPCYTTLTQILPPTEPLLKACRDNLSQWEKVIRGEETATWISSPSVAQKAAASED
Sequence of cGMP-inhibited 3',5'-cyclic phosphodiesterase 3A (Q14432 whole entry): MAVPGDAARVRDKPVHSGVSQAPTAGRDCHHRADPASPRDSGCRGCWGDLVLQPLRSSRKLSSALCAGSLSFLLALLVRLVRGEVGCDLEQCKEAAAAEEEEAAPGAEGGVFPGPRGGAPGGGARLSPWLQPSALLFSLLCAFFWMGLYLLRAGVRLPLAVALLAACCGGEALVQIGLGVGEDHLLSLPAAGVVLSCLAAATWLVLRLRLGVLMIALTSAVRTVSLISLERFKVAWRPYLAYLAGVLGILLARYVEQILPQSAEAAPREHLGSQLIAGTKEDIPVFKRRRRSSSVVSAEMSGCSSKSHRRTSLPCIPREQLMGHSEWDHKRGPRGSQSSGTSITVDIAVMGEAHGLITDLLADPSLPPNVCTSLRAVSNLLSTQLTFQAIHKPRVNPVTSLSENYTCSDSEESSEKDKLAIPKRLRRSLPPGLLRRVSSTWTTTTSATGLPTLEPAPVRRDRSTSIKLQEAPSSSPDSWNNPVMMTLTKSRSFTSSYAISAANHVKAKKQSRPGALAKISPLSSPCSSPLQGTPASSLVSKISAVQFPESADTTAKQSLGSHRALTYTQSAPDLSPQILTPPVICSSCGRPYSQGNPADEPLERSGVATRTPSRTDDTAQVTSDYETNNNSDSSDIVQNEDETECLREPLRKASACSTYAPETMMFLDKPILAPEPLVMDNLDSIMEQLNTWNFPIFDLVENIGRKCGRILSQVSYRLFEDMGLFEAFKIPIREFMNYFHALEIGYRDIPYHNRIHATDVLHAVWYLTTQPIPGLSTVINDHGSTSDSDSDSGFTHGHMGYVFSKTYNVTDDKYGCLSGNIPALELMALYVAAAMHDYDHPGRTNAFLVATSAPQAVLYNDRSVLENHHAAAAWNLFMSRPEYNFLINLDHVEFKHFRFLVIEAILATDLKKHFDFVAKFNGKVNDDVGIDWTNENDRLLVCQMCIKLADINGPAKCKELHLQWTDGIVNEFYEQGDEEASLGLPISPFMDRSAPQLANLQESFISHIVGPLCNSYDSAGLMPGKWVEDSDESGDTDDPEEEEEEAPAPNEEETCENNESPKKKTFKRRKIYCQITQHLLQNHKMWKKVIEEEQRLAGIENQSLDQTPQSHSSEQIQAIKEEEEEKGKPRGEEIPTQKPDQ

Structure (SMILES) | Ki [1] [nM] | Ki [2] [nM] | Ki [3] [nM]
COc1cc2ncnc(N3CC[C@@H](Oc4cccc(-c5ccccc5)c4)C3)c2cc1OC | 136 |  | 
COc1ccc2ccc(O[C@@H]3CCN(c4ncnc5cc(OC)c(OC)cc45)C3)cc2c1 | 17 |  | 
CCOc1cccc(O[C@@H]2CCN(c3ncnc4cc(OC)c(OC)cc34)C2)c1 | 94 |  | 
COc1cc2ncnc(N3CC[C@@H](Oc4ccncc4)C3)c2cc1OC | 112 |  | 
COc1ccc2cc(O[C@@H]3CCN(c4ncnc5cc(OC)c(OC)cc45)C3)ccc2c1 | 18 |  | 
COc1cc2ncnc(N3CC[C@@H](Oc4ccc5ncccc5c4)C3)c2cc1OC | 12 |  | 
COc1cc2ncnc(N3CC[C@@H](Oc4cccnc4)C3)c2cc1OC | 128 |  | 
CCOc1ccc(O[C@@H]2CCN(c3ncnc4cc(OC)c(OC)cc34)C2)cc1 | 54 |  | 
COc1cc2ncnc(N3CC[C@@H](Oc4ncc(Cl)cn4)C3)c2cc1OC | 44 |  | 
COc1cc2ncnc(N3CC[C@@H](Oc4ccc(C(C)(C)C)cc4)C3)c2cc1OC | 100 |  | 
COc1cc2ncnc(N3CC[C@@H](Oc4ccc5c(c4)CCC5)C3)c2cc1OC | 68 |  | 
COc1cc2ncnc(N3CC[C@@H](Oc4ccc5cccnc5c4)C3)c2cc1OC | 12 |  | 
COc1cc2ncnc(N3CC[C@@H](Oc4ccc5nc(C)ccc5c4)C3)c2cc1OC | 18 |  | 
COc1ccc(O[C@@H]2CCN(c3ncnc4cc(OC)c(OC)cc34)C2)cc1OC | 67 |  | 
COc1cc2ncnc(N3CC[C@@H](Oc4cccc(C(C)C)c4)C3)c2cc1OC | 171 | 370 | 474

The remaining lines, values ahead:

Ki [1] [nM] | Ki [2] [nM] | Ki [3] [nM] | Structure (SMILES)
19 |  |  | COc1cc2ncnc(N3CC[C@@H](Oc4cc5ccccc5cn4)C3)c2cc1OC
123 |  |  | COc1cc2ncnc(N3CC[C@@H](Oc4ccccn4)C3)c2cc1OC
326 |  |  | COc1cc2ncnc(N3CC[C@@H](Oc4ccccc4C)C3)c2cc1OC
210 |  |  | COc1cc2ncnc(N3CC[C@@H](Oc4cccc5ccccc45)C3)c2cc1OC
198 |  |  | COc1cc2ncnc(N3CC[C@@H](Oc4ccccc4Cl)C3)c2cc1OC
130 |  |  | COc1cc2ncnc(N3CC[C@@H](Oc4ccccc4C#N)C3)c2cc1OC
240 |  |  | COc1cc2ncnc(N3CC[C@@H](Oc4ccccc4OC)C3)c2cc1OC
811 |  |  | COc1cc2ncnc(N3CC[C@@H](Oc4ccccc4C(F)(F)F)C3)c2cc1OC
185 | 739 | 1820 | COc1cc2ncnc(N3CC[C@@H](Oc4ccc(OC(F)(F)F)cc4)C3)c2cc1OC
